In general, LD50 refers to the dose expected to kill half of the subjects tested. Low values mean greater toxicity, high ones lower toxicity.

Among the data in patent publication US4091211A, “Cephalosporins” (Hoffmann-La Roche Inc., priority 1974, dated 1978) are CD50 and LD50 values, retold here.

One data set relates to Escherichia coli 1346. Description: antimicrobial activity, CD50 in the mouse upon subcutaneous injection, Escherichia coli 1346. In kind it is in vivo. From the text:
(§1) The results represent CD50 values in the mouse upon subcutaneous injection. In the table, compound A is (7R)-3- [[(1,4,5,6-tetrahydro-4-ethyl-5,6-dioxo-as-triazin-3-yl)-thio]methyl]-7-[2-(5-oxo-1,2,3-oxadiazolidin-3-yl)-acetamido]-3-cephem-4-carboxylic acid sodium salt and compound B is (7R)-3- [[(1,4,5,6-tetrahydro-4-ethyl-5,6-dioxo-as-triazin-3-yl)-thio]methyl]-7-[2(1-H-tetrazol-1-yl)-acetamido]-3-cephem-4-carboxylic acid sodium salt.

Data set [1] relates to Staphylococcus aureus Schoch (Penicillin-sensitive). Description: antimicrobial activity, CD50 in the mouse upon subcutaneous injection, Staphylococcus aureus Schoch. It is filed as in vivo.
From the text: as §1

The subject of data set [2] is Staphylococcus aureus 887 (Penicillin-sensitive). Description: antimicrobial activity, CD50 in the mouse upon subcutaneous injection, Staphylococcus aureus 887. In kind it is in vivo.
From the text: as §1

Data set [3] can be described thus: acute toxicity (LD50 i.v. in the mouse). To be noted: in vivo, iv.

Counter-ions that a name gives are not always drawn.

Take `CCn1c(SCC2=C(C(=O)O)N3C(=O)[C@@H](NC(=O)C[n+]4cc([O-])on4)[C@H]3SC2)n[nH]c(=O)c1=O` [A, sodium salt]: the CD50 was found to be 0.38 mg/kg with Escherichia coli 1346, 0.25 mg/kg in data set [1] and 5.5 mg/kg in data set [2]. Besides, the median lethal dose (LD50) in data set [3] (i.v. in the mouse, acute toxicity) lay in the range of 2000 to 4000 mg/kg.
As to `CCn1c(SCC2=C(C(=O)O)N3C(=O)[C@@H](NC(=O)Cn4cnnn4)[C@H]3SC2)n[nH]c(=O)c1=O` [B, (7R)-3-[[(1,4,5,6-tetrahydro-4-ethyl-5,6-dioxo-as-triazin-3-yl)-thio]methyl]-7-[2(1-H-tetrazol-1-yl)-acetamido]-3-cephem-4-carboxylic acid sodium salt], the CD50 in the data set on Escherichia coli 1346 is 0.9 mg/kg; in data set [1] it was 0.6 mg/kg; in data set [2] it was 3.2 mg/kg. In addition, in data set [3] (mouse), the 50% lethal dose (LD50) was 1000 to 2000 mg/kg.
